Experimental data reported in US20230310478A1, “METHODS AND COMPOSITIONS FOR THE TREATMENT OF PULMONARY HYPERTENSION AND CANCER” (Ann and Robert H. Lurie Children's Hospital of Chicago, priority 2020, published 2023).
“Also recorded” adds a separate entry of the source. Where a name gives a salt, the structure may show the parent alone.

What was measured:
PDGF-B = assay: quantitative RT-PCR of PH-causing genes in DMOG-treated HLMVECs: PDGF-B; type: cell-based, human; conditions: 24 h, mean±SD
Protocol: (§1) Regarding Table 2, human lung microvascular endothelial cells (ECs) were treated with 2-Dimethyloxalylglycine (DMOG, PHD inhibitor) and either vehicle (DMSO) or various HIF inhibitors for 24 h. RNA was isolated for quantitative RT-PCR analysis.

Endothelin-1 = assay: quantitative RT-PCR of PH-causing genes in DMOG-treated HLMVECs: Endothelin-1; type: cell-based, human; conditions: 24 h, mean±SD
Protocol: as §1

SDF1 = assay: quantitative RT-PCR of PH-causing genes in DMOG-treated HLMVECs: SDF1; conditions: 24 h, mean±SD
Protocol: as §1

HIF-2α [1] = target: T1, HIF-2α (Homo sapiens, UniProt Q99814); assay: HRE-luciferase activity in stable HRE/luciferase-expressing 786-O cells; type: cell-based; conditions: for HRE luciferase activity (HIF activity), result in words: stable HRE-luciferase 786-O cells
T1 construct: endogenous in cells; host or cells: 786-O cells stably expressing HRE-luciferase
Protocol: HRE, hypoxia-responsive element.
FIG. 5. […] PBS was used in CTL and compound C76 was used as a positive control. **, P<0.01, ****, P<0.0001. Student t test.
FIG. 7. Ethacridine is a potent HIF-α inhibitor. To validate the inhibitory effect of Ethacridine, stable 786-O cells expressing HRE-Luciferase was treated with Ethacridine at the indicated concentration for 24 h. Luciferase activity was then measured and normalized to control vehicle (DMSO) group. Ethacridine at 5 uM could inhibited approximately 80% HRE activity, i.e., HIF activity. Data are expressed as mean±SD. […]

MCT-challenged rats = assay: monocrotaline (MCT) rat model of pulmonary hypertension; type: in vivo
Protocol: (A) Representative micrographs of Russel-Movat pentachrome staining of MCT-rat lungs. […] (B) Quantification of PA wall thickness in MCT rat lungs. […] Lung sections were immunostained with anti-α-smooth muscle actin (α-SMA) antibody (red); nuclei were counterstained with DAPI (blue). […] Scale bars: 50 μm.
FIG. 6. […] At 14 days post-MCT challenge, the rats were treated with HEAQ (20 mg/kg, oral, daily) or PBS for another 14 days.
RVSP was measured (A) and RV hypertrophy was calculated (B) at 28 days post-treatment. […] One-way ANOVA.
At 14 days post-MCT challenge, the rats were treated with Propantheline (1.0 mg/kg, i.p., twice a day) and Ethacridine (7.5 mg/kg, i.p., twice a day) (P+E) at the same time for 14 days. A separate group of rats was treated with either Propantheline (2.5 mg/kg, i.p., twice a day). RVSP was measured (A) and RV hypertrophy was calculated (B) at 28 days post-treatment. […] One-way ANOVA.

[2] = target: human ether-à-go-go-related gene (hERG) channel (Homo sapiens, UniProt Q12809); conditions: from reference 21; read-out: hERG channel inhibition IC50; cited from earlier work
786-O cells = assay: control SV40-luciferase activity in 786-O cells (toxicity); type: cell-based, human; conditions: for control SV40 luciferase activity (cell toxicity), result in words: quinidine at the doses tested; for SV40-Luc (of control): 2.5 uM
HIF-2α [3] = assay: Western blotting of HIF-2α protein level; type: cell-based
[4] = MCT rat lungs, quinidine s.c. osmotic pump 10-12 mg/kg/day, 14 days
[5] = MCT rats, quinidine s.c. osmotic pump 10-12 mg/kg/day, 14 days
[6] = MCT rats, quinidine s.c. osmotic pump 10-12 mg/kg/day, 14 days from 2 weeks post-MCT

T1 sequence (Q99814 whole entry): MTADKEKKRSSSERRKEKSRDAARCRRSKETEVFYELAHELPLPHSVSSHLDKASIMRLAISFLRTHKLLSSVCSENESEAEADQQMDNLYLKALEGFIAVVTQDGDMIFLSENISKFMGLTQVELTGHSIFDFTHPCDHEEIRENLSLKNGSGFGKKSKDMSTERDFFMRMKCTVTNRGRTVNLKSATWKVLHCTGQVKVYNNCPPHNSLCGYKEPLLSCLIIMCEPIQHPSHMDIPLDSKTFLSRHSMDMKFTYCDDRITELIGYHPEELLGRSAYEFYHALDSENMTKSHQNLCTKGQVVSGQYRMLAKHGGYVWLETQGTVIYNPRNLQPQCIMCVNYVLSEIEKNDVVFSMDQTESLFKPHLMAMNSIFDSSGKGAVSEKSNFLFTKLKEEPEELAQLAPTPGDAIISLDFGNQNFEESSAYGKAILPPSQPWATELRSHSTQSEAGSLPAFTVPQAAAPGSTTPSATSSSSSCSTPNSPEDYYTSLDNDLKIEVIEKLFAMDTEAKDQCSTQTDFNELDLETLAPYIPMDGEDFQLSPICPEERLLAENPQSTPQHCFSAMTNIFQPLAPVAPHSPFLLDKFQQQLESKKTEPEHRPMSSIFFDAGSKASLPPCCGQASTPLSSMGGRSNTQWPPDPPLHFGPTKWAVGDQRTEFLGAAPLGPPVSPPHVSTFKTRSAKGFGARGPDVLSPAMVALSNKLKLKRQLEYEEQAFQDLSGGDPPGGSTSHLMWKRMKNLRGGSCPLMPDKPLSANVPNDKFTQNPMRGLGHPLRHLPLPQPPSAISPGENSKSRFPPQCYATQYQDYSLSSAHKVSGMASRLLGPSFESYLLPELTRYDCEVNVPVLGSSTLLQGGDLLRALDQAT
Chain of human ether-à-go-go-related gene (hERG) channel (Q12809 whole entry): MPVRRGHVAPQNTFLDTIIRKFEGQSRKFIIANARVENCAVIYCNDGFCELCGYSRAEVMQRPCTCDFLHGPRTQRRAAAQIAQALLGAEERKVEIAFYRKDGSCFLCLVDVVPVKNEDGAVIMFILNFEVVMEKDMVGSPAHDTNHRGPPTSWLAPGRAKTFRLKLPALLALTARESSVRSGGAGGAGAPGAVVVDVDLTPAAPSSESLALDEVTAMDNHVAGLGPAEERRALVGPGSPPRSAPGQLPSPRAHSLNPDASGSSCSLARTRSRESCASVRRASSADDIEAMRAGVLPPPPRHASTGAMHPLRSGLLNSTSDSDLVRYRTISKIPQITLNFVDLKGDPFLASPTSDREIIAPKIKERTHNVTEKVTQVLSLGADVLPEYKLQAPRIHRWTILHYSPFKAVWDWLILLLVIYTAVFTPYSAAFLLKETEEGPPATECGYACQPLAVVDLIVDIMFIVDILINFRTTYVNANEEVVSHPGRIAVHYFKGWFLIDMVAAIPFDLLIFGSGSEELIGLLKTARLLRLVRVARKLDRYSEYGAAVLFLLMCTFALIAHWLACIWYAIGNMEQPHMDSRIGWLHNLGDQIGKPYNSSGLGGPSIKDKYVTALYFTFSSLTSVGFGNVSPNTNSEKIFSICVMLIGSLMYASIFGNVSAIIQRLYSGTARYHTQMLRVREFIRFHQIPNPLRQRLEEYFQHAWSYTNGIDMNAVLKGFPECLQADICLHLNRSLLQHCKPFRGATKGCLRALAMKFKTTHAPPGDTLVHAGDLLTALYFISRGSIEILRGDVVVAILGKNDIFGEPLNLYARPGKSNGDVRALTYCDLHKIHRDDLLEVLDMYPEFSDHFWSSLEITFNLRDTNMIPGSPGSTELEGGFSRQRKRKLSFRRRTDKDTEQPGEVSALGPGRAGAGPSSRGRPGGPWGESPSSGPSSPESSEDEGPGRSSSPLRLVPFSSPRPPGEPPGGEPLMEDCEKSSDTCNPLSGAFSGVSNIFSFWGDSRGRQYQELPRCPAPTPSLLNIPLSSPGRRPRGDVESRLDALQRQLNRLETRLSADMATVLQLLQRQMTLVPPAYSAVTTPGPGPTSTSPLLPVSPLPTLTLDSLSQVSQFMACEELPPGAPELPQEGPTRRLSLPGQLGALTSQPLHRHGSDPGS

Compound: CC(C)[N+](C)(CCOC(=O)C1c2ccccc2Oc2ccccc21)C(C)C.[Br-] [Propantheline]
- PDGF-B expression (control = 1.00) (PDGF-B; 40 uM, DMOG alone 2.05 ± 0.33): 1.55 ± 0.44
- Endothelin-1 expression (control = 1.00) (Endothelin-1; 40 uM, DMOG alone 2.36 ± 0.23): 1.70 ± 0.45
- SDF1 expression (control = 1.00) (SDF1; 40 uM, DMOG alone 1.80 ± 0.06): 0.53 ± 0.37
- SDF1 expression (control = 1.00) (SDF1; 40 uM, DMOG alone 1.80 ± 0.06, listed as propantheline): mainly inhibited SDF-1 expression

Compound: hydroxyethylapoquinine [HEAQ]
- HRE luciferase activity (HIF activity), result in words (HIF-2α [1]; 24 h): could inhibit HIF activity as efficiently as Quinidine
- PH (RVSP) (MCT-challenged rats; MCT rats, HEAQ 20 mg/kg oral daily for 14 days from 14 days post-MCT): attenuate PH; also recorded: markedly reduced RVSP
- IC50 [2]: > 90 µM

Compound: C=C[C@H]1C[N@]2CC[C@H]1C[C@@H]2[C@@H](O)c1ccnc2ccc(OC)cc12 [Quinidine, (2-Ethenyl-4-azabicyclo[2.2.2]oct-5-yl)-(6-methoxyquinolin-4-yl)-methanol]
- inhibition at 20 µM (HIF-2α [1]; 786-0, 786-O cells, 20 uM): ~70%
- HRE luciferase activity (HIF activity), result in words (HIF-2α [1]; 24 h): repressed HRE luciferase (Luc) activity in a dose-dependent manner
- HRE luciferase activity (HIF activity), result in words (HIF-2α [1]; 24 h, listed as quinidine): inhibition of HRE/luciferase activity in a dose-dependent manner
- control SV40 luciferase activity (cell toxicity), result in words (786-O cells): didn't repress control SV40 luciferase activity
- control SV40 luciferase activity (cell toxicity), result in words (786-O cells; listed as quinidine): without obvious toxicity
- HIF-2α protein level (HIF-2α [3]): didn't inhibit expression
- expression of HIF-2α downstream target genes in lungs (MCT-challenged rats; MCT rat lungs, quantitative RT-PCR, quinidine vs vehicle): normalized or markedly inhibited; also recorded: suppressed HIF-2α activation in MCT-rat lungs
- muscularization of distal pulmonary arteries (<75 μm) (MCT-challenged rats; [4]): markedly attenuated; also recorded: Marked decrease in muscularization of distal pulmonary arterioles
- pulmonary artery wall thickening (pulmonary vascular remodeling) (MCT-challenged rats; [4]): markedly attenuated; also recorded: reversed pulmonary vascular remodeling
- survival, result in words (MCT-challenged rats; MCT rats, Log-rank test): promoted survival
- PH (RVSP) (MCT-challenged rats; MCT rats, quinidine alone 10 mg/kg oral twice a day, 14 days): didn't inhibit PH
- RV contractility (MCT-challenged rats; [5]): Improved RV contractility
- RV wall thickness (echocardiography) (MCT-challenged rats; [5]): decreased RV wall thickness; also recorded: reduction in RV wall thickness
- RV hypertrophy (MCT-challenged rats; [6]): marked decrease; also recorded: reduced
- right ventricular systolic pressure (RVSP) (MCT-challenged rats; [6]): marked decrease; also recorded: reduced RVSP
- survival rate (MCT-challenged rats; day 28 post-MCT challenge with a lethal dose, all vehicle rats had died): 90%

Compound: CCc1c2c(nc3ccc(OC(=O)N4CCC(N5CCCCC5)CC4)cc13)-c1cc3c(c(=O)n1C2)COC(=O)[C@]3(O)CC [Irinotecan, [(19S)-10,19-diethyl-19-hydroxy-14,18-dioxo-17-oxa-3,13-diazapentacyclo[11.8.0.0^2,11.0^4,9.0^15,20]henicosa-1(21),2,4(9),5,7,10,15(20)-heptaen-7-yl] 4-piperidin-1-ylpiperidine-1-carboxylate; hydrochloride]
- inhibition at 2.5 µM (HIF-2α [1]; 786-0, 786-O cells, 2.5 uM): 65 to 77%
- HRE-Luc (of control) (HIF-2α [1]; 786-O cells, 2.5 uM): 0.23
- HRE luciferase activity (HIF activity), result in words (HIF-2α [1]; 24 h): potent HIF α inhibitors
- SV40-Luc (of control) (786-O cells; hydrochloride): 0.99
- SV40-Luc (of control) (786-O cells; listed as irinotecan, hydrochloride): without clear toxicity

Compound: CC[N+](C)(CC)CCOC(=O)C1c2ccccc2Oc2ccccc21 [Methantheline]
- inhibition at 2.5 µM (HIF-2α [1]; 786-0, 786-O cells, 2.5 uM): 65 to 77%
- HRE-Luc (of control) (HIF-2α [1]; 786-O cells, 2.5 uM): 0.31
- HRE luciferase activity (HIF activity), result in words (HIF-2α [1]; 24 h): potent HIF α inhibitors
- SV40-Luc (of control) (786-O cells): 0.86
- SV40-Luc (of control) (786-O cells; listed as methantheline): without clear toxicity

Compound: COc1cc([C@@H]2c3cc4c(cc3[C@@H](O[C@@H]3O[C@@H]5CO[C@@H](C)O[C@H]5[C@H](O)[C@H]3O)[C@H]3COC(=O)[C@H]23)OCO4)cc(OC)c1O [Etoposide, (5S,5aR,8aR,9R)-5-[[(2R,4aR,6R,7R,8R,8aS)-7,8-dihydroxy-2-methyl-4,4a,6,7,8,8a-hexahydropyrano[3,2-d][1,3]dioxin-6-yl]oxy]-9-(4-hydroxy-3,5-dimethoxyphenyl)-5a,6,8a,9-tetrahydro-5H-[2]benzofuro[6,5-f][1,3]benzodioxol-8-one]
- HRE-Luc (of control) (HIF-2α [1]; 786-O cells, 1.25 uM): 0.34
- HRE luciferase activity (HIF activity), result in words (HIF-2α [1]; 24 h): potent HIF α inhibitors
- PDGF-B expression (control = 1.00) (PDGF-B; 20 & 40 uM, DMOG alone 2.05 ± 0.33): 0.77 ± 0.37
- PDGF-B expression (control = 1.00) (PDGF-B; 20 & 40 uM, DMOG alone 2.05 ± 0.33, listed as etoposide): markedly inhibited
- Endothelin-1 expression (control = 1.00) (Endothelin-1; 20 & 40 uM, DMOG alone 2.36 ± 0.23): 0.47 ± 0.50
- Endothelin-1 expression (control = 1.00) (Endothelin-1; 20 & 40 uM, DMOG alone 2.36 ± 0.23, listed as etoposide): markedly inhibited
- SDF1 expression (control = 1.00) (SDF1; 20 & 40 uM, DMOG alone 1.80 ± 0.06): 1.25 ± 0.80

Compound: CCOc1ccc2nc3cc(N)ccc3c(N)c2c1 [Ethacridine, 7-ethoxyacridine-3,9-diamine]
- inhibition at 2.5 µM (HIF-2α [1]; 786-0, 786-O cells, 2.5 uM): 70%
- inhibition at 5 µM (HIF-2α [1]; 786-0, 786-O cells, 5 uM, 24 h, read-out: inhibition of HRE activity, i.e., HIF activity): ~80%
- HRE luciferase activity (HIF activity), result in words (HIF-2α [1]; 24 h): potent HIF α inhibitors
- PH (RVSP) (MCT-challenged rats; MCT rats, ethacridine alone 7.5 mg/kg i.p. twice a day, 14 days): didn't inhibit PH
- PDGF-B expression (control = 1.00) (PDGF-B; 20 & 30 uM, DMOG alone 2.05 ± 0.33): 0.52 ± 0.31
- PDGF-B expression (control = 1.00) (PDGF-B; 20 & 30 uM, DMOG alone 2.05 ± 0.33, listed as ethacridine): markedly inhibited
- Endothelin-1 expression (control = 1.00) (Endothelin-1; 20 & 30 uM, DMOG alone 2.36 ± 0.23): 0.12 ± 0.07
- Endothelin-1 expression (control = 1.00) (Endothelin-1; 20 & 30 uM, DMOG alone 2.36 ± 0.23, listed as ethacridine): markedly inhibited
- SDF1 expression (control = 1.00) (SDF1; 20 & 30 uM, DMOG alone 1.80 ± 0.06): 12.9 ± 8.1
- SDF1 expression (control = 1.00) (SDF1; 20 & 30 uM, DMOG alone 1.80 ± 0.06, listed as ethacridine): induced SDF-1 expression
